Results taken from patent US20200370050A1, “CELL PROLIFERATION INHIBITOR AND CANCER TREATMENT OR PREVENTION PHARMACEUTICAL COMPOSITION INCLUDING CELL PROLIFERATION INHIBITOR” (priority 2017, published 2020).

Columns and labels:
HCT116 cells = test: Effect of CRAF protein fragment on cell growth, number of living cells by WST assay (CCK-8); type: cell-based, human; details: 1.0×10^4 cells seeded (similar tendency at 2.0×10^4), transfected with pcDNA-hRAF384, 100 ng plasmid per well, 0-96 h, control empty vector pcDNA3.1(+), FIG. 5 part A
Description: (§1) The CRAF protein fragment expression plasmid pcDNA-hRAF384 (5807 bp) was prepared by cloning the region of positions 332 to 718 of the human CRAF gene (SEQ ID NO: 6) downstream of a CMV (cytomegalovirus) promoter in the vector pcDNA3.1(+) (Thermo Fisher Scientific). The plasmid expresses a CRAF protein fragment (a polypeptide having the amino acid sequence set forth in SEQ ID NO: 9) of positions 56 to 184 of the human CRAF protein (SEQ ID NO: 5).
(§2) HCT116 cells (KRAS mutation-positive human colon cancer cells) were obtained from ATCC. Since HCT116 cells have KRAS in which the position 13 amino acid glycine (G) is activatingly mutated to aspartic acid (D), the RAS/RAF/ME/ERK signaling cascade is activated in HCT116 cells.
(§3) The HCT116 or DLD-1 cells were seeded at 1.0×10^4 or 2.0 x 10^4 cells per well of 96-well plates and cultured in a McCoy's SA medium in an environment of 5% CO2 at 37° C. for 24 h. The cultured cells were transfected with the CRAF protein fragment expression plasmid pcDNA-hRAF384 using Lipofectamine 3000 (Thermo Fisher Scientific). As a control, the cells were transfected with the empty vector pcDNA3.1(+) (Thermo Fisher Scientific). […]
(§4) Immediately (0 h), 24 h, 48 h, 72 h, and 96 h after the cultivation, the cells were collected and measured for the number of living cells by WST assay. […]

DLD-1 cells = test: as above; type: cell-based, human; details: 1.0×10^4 cells seeded (similar tendency at 2.0×10^4), transfected with pcDNA-hRAF384, 100 ng plasmid per well, 0-96 h, control empty vector pcDNA3.1(+), FIG. 5 part B
Description: as §1
as §2, with “DLD-1” for “HCT116”, “JCRB Cell Bank of National Institutes of Biomedical innovation, Health and Nutrition.” for “ATCC.”, “RAS/RAF/MEK/ERK” for “RAS/RAF/ME/ERK”
as §3, §4

“CRAF protein fragment: Polypeptide of SEQ ID NO: 9, positions 56 to 184 of human CRAF protein, expressed from plasmid pcDNA-hRAF384” was tested, and the “cell growth (number of living cells) as compared to the control” value (HCT116 cells) was “reduced growth” and the “cell growth (number of living cells) as compared to the control” value (DLD-1 cells) was “reduced growth”.
